The assay concerns the target PimD (Streptomyces natalensis, UniProt Q9EW92). The assay is described as follows: UV-visible difference spectrophotometric titration. Type of assay: binding.

In general, Kd refers to the free concentration of one partner at which half of the binding sites on the other are occupied at equilibrium, for simple one-to-one binding. High values mean a looser complex, low ones a tighter complex. For `C[C@@H]1C/C=C/C=C/C=C/C=C/[C@H](O[C@@H]2O[C@H](C)[C@@H](O)[C@H](N)[C@@H]2O)C[C@@H]2O[C@](O)(C[C@@H](O)C/C=C/C=C/C(=O)O1)C[C@H](O)[C@H]2C(=O)O` [4,5-desepoxypimaricin], the Kd turned out to be 4 µM.

(Values after PMC2932657 (Chemistry & biology, 2010).)
